In US20240091241A1, “USE OF CANNABIDIOL PREPARATIONS IN THE TREATMENT OF TEMPORAL LOBE EPILEPSY” (GW Research Limited, priority 2019, published 2024):

Legend:
Li-Pilo rats [1] = assay: Elevated plus-maze test in Li-Pilo rats; format: in vivo, rat; details: 200 mg/kg, given orally for 6/7 weeks before the test
Method: (§1) From this point, the rats selected received vehicle during the first week of dosing then the test substance, CBD (SYN) or CBD (BOT 0.08%), at 200 mg/kg in drinking water until the end of the study, i.e. 7 weeks (1 week vehicle+6 weeks test substance). Dosing continued throughout the behavioural testing period (1 week). The drink was changed twice a week, until the end of the experiment.
The behavioural tests started 6 weeks after the beginning of dosing, i.e. between weeks 11 and 13. The rats were tested in sub-groups, depending on the beginning of the treatment. The behavioural tests included the elevated plus maze, social investigation, social recognition and accelerating rotarod tests (tests done in this order on the week of assessment).
The method, which detects anxiolytic activity, follows that described by Handley and Mithani (Naunyn. Schmied. Arch. Pharmacol., 327, 1-5, 1984). Rodents avoid open spaces (the open arms of an elevated plus-maze). Anxiolytics increase exploratory activity in the open arms, as indicated by increased time spent on the open arms and/or by increased % open-arm entries.
The maze consisted of 4 arms of equal length and width (50×10 cm) arranged in the form of a plus sign (+). Two opposite arms were enclosed by 40 cm high walls (closed arms). The 2 other arms had no walls (open arms). The maze was raised approximately 65 cm above the floor. A rat was placed in the center of the plus-maze and was left to explore for 5 minutes. The number of entries into the open and closed arms and the time spent on the open arms were recorded. The % of open arm entries (open arm entries/total arm entries×100) was calculated.
A test of normality (D'Agostino and Pearson) was done to check the distribution of the data before applying the appropriate statistical analysis. Data on the total number of entries and on the percent of entries in open arms was analyzed using One-Way analysis of variance (ANOVA) followed by Sidak's multiple comparisons test. Data on the time spent in open arms was analysed using Kruskal-Wallis Test followed by Dunn's multiple comparisons test.

[2] = General status / body weight of Li-Pilo rats during treatment; format: in vivo, rat
Method: as §1
The rats were weighed twice a week, at the same time that the vehicle/formulations were changed in the bottles. The glass bottles were also weighed twice a week for evaluating the volume drunk by the rat and adjusting the concentration during the experiment.

[3] = tested on: rat model of temporal lobe epilepsy, Reduced Intensity Status Epilepticus (RISE); assay: Post-Seizure Behavioural Battery (PSBB) in the Reduced Intensity Status Epilepticus (RISE) model; format: in vivo
Method: Reduced Intensity Status Epilepticus (RISE) model
The method, which detects anti-epileptic activity follows that described by Modebaze et al., 2016 (PLoS one, 11(2):e0147265).
On Day 1, the rats were treated with lithium chloride (127 mg/kg, 5 mL/kg, s.c.). Approximately 24 hours after, on Day 2, a-methyl scopolamine (1 mg/kg, 1 mL/kg, s.c.) was administered to reduce peripheral manifestations of muscarinic cholinergic receptor activation. Thirty minutes later, a dose of pilocarpine chloride was injected (range from 25 mg/kg×1 to 40 mg/kg×5, i.e. 25-200 mg/kg, 1 mL/kg, s.c., reference P6503, Sigma). […]
Status epilepticus was determined when seizure severity was equal to a score of 5 on a Racine's scale. […]
Behavioural signs of status epilepticus were ceased within 30 minutes and animals were then closely monitored during subsequent recovery. They were visually monitored until ambulatory and able to consume water and moistened, powdered food. […]
The lithium-pilocarpine rats were assessed in the two following behavioural tests twice weekly over the next 10 weeks, starting two weeks after status epilepticus induction (on Day 15). […]
The PSBB score was analysed pre and post-treatment to assess firstly if the animals were evenly distributed in the 3 different treatment groups based on their epileptic phenotype and if it was affected differently by synthetic and botanical CBD. […]

Li-Pilo rats [4] = assay: Social investigation test in Li-Pilo rats; format: in vivo, rat; details: 200 mg/kg, given orally for 6/7 weeks before the test
Method: as §1
The behavioural tests started 6 weeks after the beginning of dosing, i.e. between weeks 11 and 13. The rats were tested in sub-groups, depending on the beginning of the treatment. […]
Two unfamiliar rats (housed in 2 separate cages) from the same group were placed in an unfamiliar testing arena (80×80×40 cm) under dim light (<100 Lux). The behavior of the 2 rats was recorded for 10 minutes.
The time each rat spent investigating (sniffing, grooming, licking, closely following) the other rat was measured manually for 10 minutes. Locomotor activity (line crossing) was also recorded.
A test of normality (D'Agostino and Pearson) was done to check the distribution of the data before applying the appropriate statistical analysis. Data on the investigation duration was analyzed using Kruskal-Wallis Test followed by Dunn's multiple comparisons test. Data on the number of crossings was analysed using One-Way ANOVA followed by Sidak's multiple comparisons test.

C=C(C)[C@@H]1CCC(C)=C[C@H]1c1c(O)cc(CCCCC)cc1O [Synthetic CBD, cannabidiol]
percent of entries in open arms, as compared with control Li-Pilo rats (Li-Pilo rats [1]): did not clearly affect | time spent in open arms, as compared with control Li-Pilo rats (Li-Pilo rats [1]): did not clearly affect | total number of entries, as compared with control Li-Pilo rats (Li-Pilo rats [1]; 5 minutes): did not clearly affect | rats that lost weight on the 7 weeks of test ([2]; Phase 1): Three other rats lost weight | deaths in the treated group ([2]; Phase 1, nine rats in group): Two rats died | rats that lost weight on the 7 weeks of test ([2]; Phase 2): Four other rats lost weight | rats lost before the end of the experiment ([2]; Phase 2, thirteen rats in group): One rat was sacrificed for ethical reasons | post-treatment PSBB score, as compared with control Li-Pilo rats (epileptic vehicle) ([3]; 200 mg/kg, given orally for 6/7 weeks before the test): did not significantly affect | post-treatment PSBB score (conclusion) ([3]; epileptic animals, comparator not stated): failed to lower the score | duration of investigation, as compared with control Li-Pilo rats (Li-Pilo rats [4]): did not significantly change | number of line crossings, as compared with control Li-Pilo rats (Li-Pilo rats [4]): did not significantly change
